Test results published in patent US9107964B2, “Radioactive fluorine-labeled compound” (NIHON MEDI-PHYSICS CO., LTD., priority 2011, dated 2015).
“Also recorded” adds a separate entry of the source.

Legend:
Type in all cases: in vivo, mouse (Balb/c nu/nu)
[1] = tested on: mouse-derived breast cancer cell line (EMT6) tumor-bearing model mice; test: PET imaging of tumor-bearing model mice (incorporation into tumor cells, Example 10); details: 60 minutes after administration; for Physiological accumulation in the liver compared with [^18F]FMISO: coronal tomographic PET image; for Excretion route: from coronal tomographic PET image
Protocol: Accumulation of compound 1, compound 2, and compound 3 in tumor cells in vivo was studied as follows using a mouse-derived breast cancer cell line (EMT6).
Preparation of tumor-bearing model mice: the animals used were six-week-old female Balb/c nu/nu mice (obtained from Japan SLC). Using these animals, a Matrigel suspension (cell count 2.5×10^6 cells/0.05 mL) of EMT6, which is a mouse-derived breast cancer cell line (obtained from ATCC), was subcutaneously implanted in a site from the right rib to the right shoulder. It was confirmed on the third day after implantation that the tumor cells were fixed, and the tumor volume attained 200 to 400 mm^3 9 to 11 days after implantation.

[2] = tested on: EMT6 tumor-bearing model mice; test: Biodistribution in tumor and organs of tumor-bearing mouse (Example 14); details: for Blood / Gall bladder / Heart / Kidney / Large intestine / Liver / Lung / Muscle / Small intestine / Stomach / T/B (tumor/blood ratio) / T/M (tumor/muscle ratio) / Tumor / Urine: mean; for Blood clearance and urinary excretion: compared with [^18F]FMISO, 60 and 120 minutes after administration
Protocol: The biodistribution of compounds 1 to 3 and [^18F]FMISO in a tumor and each of the organs of a tumor-bearing mouse was measured.
Tumor-bearing model mice used in this experiment were the same as those prepared in Example 10, and 3 or 4 cases that had attained a tumor volume of 200 to 400 mm^3 were selected from each group. The tumor-bearing model mouse was placed under isoflurane anesthesia, pimonidazole that is a hypoxic marker, was administered via a tail vein, and at 10 minutes thereafter, the respective labeled compound was administered. The tumor-bearing model mouse was sacrificed at 60 minutes and 120 minutes after administration. All of the tumor-bearing model mice were sacrificed by blood-letting from the abdominal aorta or by cardiocentesis, and dissection was carried out immediately thereafter. Other than the tumor, the blood, heart, lung, stomach, liver, gallbladder, kidney, small intestine and large intestine, muscle, and urine were sampled, and the other tissues were defined as the remaining whole body. After the weight of each tissue sampled was measured, the amount of radioactivity of the tissue was measured using a gamma counter, and the biodistribution of each of the labeled compounds was compared by converting it into % ID/g (% injection dose/g organ) of each tissue.
In order to examine a hypoxic state within the tumor, immunohistochemical staining of the sample tumor was carried out so as to ascertain whether or not the interior of the tumor was hypoxic. The sampled tumor was fixed using a 20% formalin buffer, and a paraffin block was prepared using an automatic paraffin-embedding apparatus (model: VIP-5-Jr-J0, Sakura Finetek). A slice (thickness: 3 μm) was prepared by means of a microtome (model: Tissue-Tek Feather Trustome, Sakura Finetek). Immunohistochemical staining was carried out by the same method as in Example 12.

[3] = tested on: hypoxic region of EMT6 tumor (pimonidazole-positive area); test: Correlation between autoradiographic signal intensity (PSL value) and pimonidazole-positive area (Example 13); details: tumor tissue sections after PET imaging
Protocol: In order to evaluate whether or not the compound related to the present invention can quantitatively visualize a hypoxic region of a tumor, the following experiment was carried out using compounds 1 to 3 and [^18F]FMISO.
Using a microscope system (model: BZ-9000, Keyence Corporation) a high magnification image of a pimonidazole-positive site was acquired using the entire image of a pathology image obtained by immunohistochemical staining in the Example 12 and a 10× objective lens. The high magnification image was formed with respect to a randomly selected image region. At the same time the image acquisition site was recorded as a navigation image by use of the navigation function of the microscope system. The acquired high magnification image was subjected to image processing, and a pimonidazole-positive area present in the high magnification image was determined.
The autoradiographic image and the stained image of each labeled compound used were those acquired in the Example 12. The resolution of the navigation image was made to match the resolution of the autoradiographic image, and the geometrical positions of two images were aligned using image analysis software.
In the autoradiographic image, an ROI was set for the site that coincided with the high magnification image acquisition site, and the PSL value (Photo-Stimulated Luminescence value) of the ROI was determined. Furthermore, an ROI was set for a site of the same image that contained no sample, and the PSL value thereof was defined as the background. The PSL value of the background was subtracted from the PSL value of the high magnification image acquisition site to obtain the net PSL value. The hypoxic marker pimonidazole-positive area was plotted on the abscissa and the PSL value in the autoradiographic image on the ordinate, and the correlation factor was determined. This series of operations was carried out for each of the labeled compounds.

[4] = 60 minutes after administration
[5] = 120 minutes after administration

Blood [2, 4] [% ID/g]	Gall bladder [2, 4] [% ID/g]	Heart [2, 4] [% ID/g]	Kidney [2, 4] [% ID/g]	Large intestine [2, 4] [% ID/g]	Liver [2, 4] [% ID/g]	Lung [2, 4] [% ID/g]	Muscle [2, 4] [% ID/g]	Small intestine [2, 4] [% ID/g]	Stomach [2, 4] [% ID/g]	T/B (tumor/blood ratio) [2, 4]	T/M (tumor/muscle ratio) [2, 4]	Tumor [2, 4] [% ID/g]	Urine [2, 4] [% ID]	Blood [2, 5] [% ID/g]	Gall bladder [2, 5] [% ID/g]	SMILES	Sites of accumulation on coronal tomographic image [1]	Tumor-specific accumulation on axial tomographic image [1]	Physiological accumulation in the liver compared with [^18F]FMISO [1]	Excretion route [1]	other results
2.81	16.71	3.46	9.95	5.40	4.46	2.92	2.66	4.68	1.99	0.86	0.87	2.05	45.80	1.14	15.45	O=[N+]([O-])c1nccn1CCC(CO)(CO)C[18F] [Compound 3, 1-(3,3-Dihydroxymethyl-4-[^18F]fluorobutyl)-2-nitroimidazole]	intense accumulation of compound 2 and compound 3 was found in the bladder and accumulation thereof was found in the intestinal tract; also recorded: accumulation of compound 3 in the gallbladder	tumor-specific accumulation	low physiological accumulation in the liver	excreted via the kidney and urinary tract system and the hepatobiliary system	Heart [2, 5]: 1.82 % ID/g; Kidney [2, 5]: 9.20 % ID/g; Large intestine [2, 5]: 6.89 % ID/g; Liver [2, 5]: 2.13 % ID/g; Lung [2, 5]: 1.38 % ID/g; Muscle [2, 5]: 1.44 % ID/g; Small intestine [2, 5]: 3.66 % ID/g; Stomach [2, 5]: 1.26 % ID/g; T/B (tumor/blood ratio) [2, 5]: 2.11; T/M (tumor/muscle ratio) [2, 5]: 1.62; Tumor [2, 5]: 1.93 % ID/g; Urine [2, 5]: 68.78 % ID; Blood clearance and urinary excretion [2]: rapid blood clearance and urinary excretion compared with [^18F]FMISO; Correlation coefficient (pimonidazole-positive area vs PSL value in autoradiographic image) [3]: 0.61
0.60	7.54	1.32	1.86	0.96	1.14	0.89	1.25	2.35	0.48	2.11	0.91	1.13	80.42	0.25	7.33	O=[N+]([O-])c1nc(CO)cn1CC(CO)(CO)C[18F] [Compound 2, 1-(2,2-Dihydroxymethyl-3-[^18F]fluoropropyl)-4-hydroxymethyl-2-nitroimidazole]	intense accumulation of compound 2 and compound 3 was found in the bladder and accumulation thereof was found in the intestinal tract	tumor-specific accumulation	low physiological accumulation in the liver	excreted mainly via the kidney and urinary tract system	Heart [2, 5]: 0.74 % ID/g; Kidney [2, 5]: 0.82 % ID/g; Large intestine [2, 5]: 0.88 % ID/g; Liver [2, 5]: 0.54 % ID/g; Lung [2, 5]: 0.34 % ID/g; Muscle [2, 5]: 0.47 % ID/g; Small intestine [2, 5]: 1.63 % ID/g; Stomach [2, 5]: 0.25 % ID/g; T/B (tumor/blood ratio) [2, 5]: 3.18; T/M (tumor/muscle ratio) [2, 5]: 1.68; Tumor [2, 5]: 0.78 % ID/g; Urine [2, 5]: 90.92 % ID; Blood clearance and urinary excretion [2]: even more rapid; Correlation coefficient (pimonidazole-positive area vs PSL value in autoradiographic image) [3]: 0.80
1.70	26.34	2.35	4.23	3.71	3.34	1.96	1.71	3.72	1.53	1.42	1.39	2.38	62.13	0.75	8.21	O=[N+]([O-])c1nccn1CC(CO)(CO)C[18F] [Compound 1, 1-(2,2-Dihydroxymethyl-3-[^18F]fluoropropyl)-2-nitroimidazole]	intense accumulation of compound 1 in the bladder, and accumulation thereof in the gallbladder and the intestinal tract	tumor-specific accumulation separated from normal tissue such as muscle	low physiological accumulation in the liver	excreted via the kidney and urinary tract excretion and hepatobiliary excretion systems	Heart [2, 5]: 1.90 % ID/g; Kidney [2, 5]: 2.91 % ID/g; Large intestine [2, 5]: 2.37 % ID/g; Liver [2, 5]: 4.31 % ID/g; Lung [2, 5]: 0.89 % ID/g; Muscle [2, 5]: 0.84 % ID/g; Small intestine [2, 5]: 2.78 % ID/g; Stomach [2, 5]: 0.88 % ID/g; T/B (tumor/blood ratio) [2, 5]: 2.47; T/M (tumor/muscle ratio) [2, 5]: 2.03; Tumor [2, 5]: 1.65 % ID/g; Urine [2, 5]: 77.76 % ID; Blood clearance and urinary excretion [2]: rapid blood clearance and urinary excretion compared with [^18F]FMISO; Correlation coefficient (pimonidazole-positive area vs PSL value in autoradiographic image) [3]: 0.85
